Test [1] deals with vasopressin V1 receptor (rat liver plasma membranes) (Rattus norvegicus, UniProt P30560). As to the kind of experiment: Binding Assay to Rat Hepatic V1 Receptors. The conditions noted are these: for IC50: rat hepatic V1. How it is done:
Rat liver plasma membranes expressing the vasopressin V1 receptor subtypes are isolated by sucrose density gradient according to the method described by Lesko et al., (1973). These membranes are quickly suspended in 50.0 mM Tris.HCl buffer, pH 7.4, containing 0.2% bovine serum albumin (BSA) and 0.1 mM phenylmethylsulfonylfluoride (PMSF) and kept frozen at -70° C. until used in subsequent binding experiments. For binding experiments, the following is added to the wells of a ninety-six well format microtiter plate: 100 μl of 100.0 mM Tris.HCl buffer containing 10.0 mM MgCl2, 0.2% heat inactivated BSA and a mixture of protease inhibitors: leupeptin, 1.0 mg %; aprotinin, 1.0 mg %; 1,10-phenanthroline,2.0 mg %; trypsin inhibitor, 10.0 mg % and 0.1 mM PMSF, 20.0 μl of [phenylalanyl-3,4,5,-^3 H] vasopressin (S.A. 45.1 Ci/mmole) at 0.8 nM, and the reaction initiated by the addition of 80 μl of tissue membranes containing 20 μg of tissue protein. The plates are kept undisturbed on the bench top at room temperature for 120 min. to reach equilibrium. Non-specific samples are assayed in the presence of 0.1 μM of the unlabeled antagonist phenylalanylvasopressin, added in 20.0 μl volume.
For test compounds, these are solubilized in 50% dimethylsulfoxide (DMSO) and added in 20.0 μl volume to a final incubation volume of 200 μl. Upon completion of binding, the content of each well is filtered off, using a Brandel® cell Harvester (Gaithersburg, Md.). The radioactivity trapped on the filter disk by the ligand-receptor complex is assessed by liquid scintillation counting in a Packard LS Counter, with an efficiency of 65% for tritium.

Test [2] deals with T1, rat kidney medullary V2 receptors (Rattus norvegicus, UniProt Q00788).
T1 construct: Medullary tissues from rat kidneys are dissected out; from tissue; host or cells: rat kidney medulla membranes
As to the kind of experiment: Binding Assay to Rat Kidney Medullary V2 Receptors. The following applies: for IC50: rat kidney medullary V2. The protocol:
Medullary tissues from rat kidneys are dissected out, cut into small pieces and soaked in a […] sodium chloride solution containing 1.0 mM EDTA with many changes of the liquid phase, until the solution is clear of blood. The tissue is homogenized in a 0.25M sucrose solution containing 1.0 mM EDTA and 0.1 mM PMSF using a Potter-Elvehjem homogenizer with a teflon pestle. The homogenate is filtered through several layers (4 layers) of cheese cloth. The filtrate is rehomogenized using a dounce homogenizer, with a tight fitting pestle. The final homogenate is centrifuged at 1500×g for 15 min. The nuclear pellet is discarded and the supernatant fluid recentrifuged at 40,000×g for 30 min. The resulting pellet formed contains a dark inner part with the exterior, slightly pink. The pink outer part is suspended in a small amount of 50.0 mM Tris.HCl buffer, pH 7.4. The protein content is determined by the Lowry's method (Lowry et al., J. Biol. Chem., 1953). The membrane suspension is stored at -70° C., in 50.0 mM Tris.HCl, containing 0.2% inactivated BSA and 0.1 mM PMSF in aliquots of 1.0 ml containing 10.0 mg protein per ml of suspension until use in subsequent binding experiments.
For binding experiments, the following is added in μl volume to wells of a 96 well format of a microtiter plate: 100.0 μl of 100.0 mM Tris.HCl buffer containing 0.2% heat inactivated BSA, 10.0 mM MgCl2 and a mixture of protease inhibitors: leupeptin, 1.0 mg %; aprotinin, 1.0 mg %; 1,10-phenanthroline, 2.0 mg %; trypsin inhibitor, 10.0 mg % and 0.1 mM PMSF, 20.0 μl of [^3 H] Arginine^8, vasopressin (S.A. 75.0 Ci/mmole) at 0.8 nM and the reaction initiated by the addition of 80.0 μl of tissue membranes (200.0 μg tissue protein). The plates are left undisturbed on the bench top for 120 min to reach equilibrium. Non-specific binding is assessed in the presence of 1.0 μM of unlabeled ligand, added in 20 μl volume. For test compounds, these are solubilized in 50% dimethylsulfoxide (DMSO) and added in 20.0 μl volume to a final incubation volume of 200 μl. Upon completion of binding, the content of each well is filtered off, using a Brandel® cell Harvester (Gaithersburg, Md.). The radioactivity trapped on the filter disk by the ligand-receptor complex is assessed by liquid scintillation counting in a Packard LS Counter, with an efficiency of 65% for tritium.

Test [3] has as its system vasopressin V1. Put plainly: Vasopressin V1 Antagonist Activity in Conscious Rats (vasopressin vasopressor response). The test is classed as in vivo, rat (spontaneously hypertensive rats). The conditions noted are these: 10 mg/kg i.v. The protocol:
Conscious rats are restrained in a supine position with elastic tape. The area at the base of the tail is locally anesthetized by subcutaneous infiltration with 2% procaine (0.2 ml). Using aseptic technique the ventral caudal tail artery is isolated and a cannula made of PE 10 and 20 (heat-fused) tubing is passed into the lower abdominal aorta. The cannula is secured, heparinized (1000 i.u./cc), sealed and the wound closed with one or two stitches of Dexon 4-0. The caudal vein is also cannulated in the same manner for intravenous drug administration. The duration of the surgery is approximately 5 minutes. Additional local anesthesia (2% procaine or lidocaine) is provided as needed.
The animals are placed in plastic restraining cages in an upright position. The cannula is attached to a Statham P23Db pressure transducer and pulsatile blood pressure is recorded. […] The vasopressin injections are repeated 30, 60, 90, 120, 180, 240 and 300 min. later. Percentage of antagonism by the compound is calculated using the pre-drug vasopressin vasopressor response as 100%.

Where [4] appears, read: 2 h, rat hepatic, read-out: V1, % at concentration in brackets.
The mark [5] stands for this setting: rat kidney, read-out: V2, % at concentration in brackets.

Each structure is given as a SMILES string.

Chain of vasopressin V1 receptor (rat liver plasma membranes) (P30560 whole entry): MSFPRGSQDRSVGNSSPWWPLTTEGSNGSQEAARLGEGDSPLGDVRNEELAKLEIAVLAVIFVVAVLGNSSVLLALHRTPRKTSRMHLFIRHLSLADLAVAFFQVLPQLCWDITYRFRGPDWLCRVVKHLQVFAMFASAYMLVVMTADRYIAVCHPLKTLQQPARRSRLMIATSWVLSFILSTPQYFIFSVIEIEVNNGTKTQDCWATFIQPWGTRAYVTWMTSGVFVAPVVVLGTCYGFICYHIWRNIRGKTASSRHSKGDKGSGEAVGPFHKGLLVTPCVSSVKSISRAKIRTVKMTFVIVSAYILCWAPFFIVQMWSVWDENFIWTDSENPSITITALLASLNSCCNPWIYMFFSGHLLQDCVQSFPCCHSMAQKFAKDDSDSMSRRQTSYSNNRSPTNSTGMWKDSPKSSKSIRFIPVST
T1 sequence (Q00788 whole entry): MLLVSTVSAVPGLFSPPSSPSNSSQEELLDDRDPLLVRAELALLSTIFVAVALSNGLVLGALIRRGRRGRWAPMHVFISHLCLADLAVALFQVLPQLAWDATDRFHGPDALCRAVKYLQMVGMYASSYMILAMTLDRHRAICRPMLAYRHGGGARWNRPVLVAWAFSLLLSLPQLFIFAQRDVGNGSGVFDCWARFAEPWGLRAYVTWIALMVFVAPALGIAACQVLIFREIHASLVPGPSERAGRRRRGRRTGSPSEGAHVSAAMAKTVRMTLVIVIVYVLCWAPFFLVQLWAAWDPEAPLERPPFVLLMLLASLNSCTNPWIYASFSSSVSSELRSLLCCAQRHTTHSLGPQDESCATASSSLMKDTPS

On to `O=C(Nc1ccc(C(=O)N2Cc3ccccc3Cc3ccccc32)cc1)c1cccc(C(F)(F)F)c1` [Example 19, N-[4-[(6,11-Dihydro-5H-dibenz[b,e]azepine-5-yl)carbonyl]phenyl]-3-(trifluoromethyl)benzamide], for which the concentration for half-maximal inhibition (IC50) (as a rule, the concentration that inhibits the measured activity by half) turned out to be 1300 nM in test [1] and 1200 nM in test [2].
On the same counts, the results for `O=C(Nc1ccc(C(=O)N2Cc3ccccc3-c3ccccc32)cc1)c1ccc(Cl)c(Cl)c1` [Example 8, 3.4-Dichloro-N-[4-[(5(6H)-phenanthridinyl)carbonyl]phenyl]benzamide] are 2800 nM and 1500 nM.
In the case of `Cc1ccccc1C(=O)Nc1ccc(C(=O)N2Cc3ccccc3CCc3ccccc32)cc1` [Example 6, N-[4-[(11,12-Dihydrodibenz[b,f]azocin-5-(6H)-yl)-carbonyl]phenyl]-2-methylbenzamide], the inhibition at 50 µM in test [1] (setting [4]) amounted to 60%; in test [2] (setting [5]), 80%.
Regarding `Cc1ccc(C)c(C(=O)Nc2ccc(C(=O)N3Cc4ccccc4Cc4ccccc43)cc2)c1` [Example 12, N-[4-[(6,11-Dihydro-5H-dibenz[b,e]azepin-5-yl)carbonyl]phenyl]-2,5-dimethylbenzamide], the values for the IC50 in test [1] and in test [2] were 390 nM and 180 nM, respectively.
On the same counts, the results for `Cc1ccsc1C(=O)Nc1ccc(C(=O)N2Cc3ccccc3-c3ccccc32)cc1` [Example 3, 3-Methyl-N-[4-[(5(6H)-phenanthridinyl)carbonyl]-phenyl]-2-thiophenecarboxamide] are 170 nM and 420 nM.
On the same counts, the results for `O=C(Nc1ccc(C(=O)N2Cc3ccccc3-c3ccccc32)cc1)c1c(Cl)cccc1Cl` [Example 7] are 630 nM and 77 nM.
As to `COc1cc(Cl)ccc1C(=O)Nc1ccc(C(=O)N2Cc3ccccc3Cc3ccccc32)cc1` [Example 165, N-[4-[(6,11-Dihydro-5H-dibenz[b,e]azepin-5-yl)carbonyl]phenyl]-2-methoxy-4-chlorobenzamide], the IC50 in test [1] was found to be 490 nM; in test [2] it was 370 nM.
As to `Cc1occc1C(=O)Nc1ccc(C(=O)N2Cc3ccccc3Cc3ccccc32)cc1` [Example 119], the values for the IC50 in test [1] and in test [2] were 39 nM and 1100 nM, respectively.
Take `O=C(Nc1ccc(C(=O)N2Cc3ccccc3Sc3ccccc32)cc1)c1ccc(Cl)cc1Cl` [Example 449, N-[4-[(Dibenz[b,f][1,4]thiazepin-10(11H)-yl)-carbonyl]phenyl]-2 4-dichlorobenzamide]: the IC50 in test [1] is 360 nM; in test [2], 250 nM. Also, the “MAX % Inhibition” value in test [3] came to 45%. Also, in test [3], the “Time of max % inhibition” value came to 90 min.
`O=C(Nc1ccc(C(=O)N2Cc3ccccc3Cc3ccccc32)cc1)c1cc(Cl)ccc1Cl` [Example 9, N-[4-[(6,11-Dihydro-5H-dibenz[b,e]azepin-5-yl)carbonyl]phenyl]-2,5-dichlorobenzamide]: the figures for the IC50 in test [1] and in test [2] were 1100 nM and 280 nM, respectively.
Taken in the same sequence, the figures for `O=C(Nc1ccc(C(=O)N2Cc3ccccc3Cc3ccccc32)cc1)c1ccccc1C(F)(F)F` [Example 166, N-[4-[(6,11-Dihydro-5H-dibenz(b,e]azepin-5-yl)carbonyl]phenyl]-2-trifluoromethylbenzamide] were 83 nM and 245 nM.
On the same counts, the results for `Cc1ccccc1C(=O)Nc1ccc(C(=O)N2Cc3cc(Cl)ccc3Oc3ccccc32)cc1` [Example 4] are 1500 nM and 1700 nM.
Take `O=C(Nc1ccc(C(=O)N2Cc3ccccc3Cc3ccccc32)cc1)c1cccnc1` [Example 17, N-[4-[(6,11-Dihydro-5H-dibenz[b,e]azepin-5-yl)-carbonyl]phenyl]-3-pyridinecarboxamide]: the figures for the inhibition at 50 µM in test [1] (setting [4]) and in test [2] (setting [5]) were 65% and 52%, respectively.
In the case of `Cc1ccc(C(=O)Nc2ccc(C(=O)N3Cc4ccccc4Cc4ccccc43)cc2)c(C)c1` [Example 13, N-[4-[(6,11-Dihydro-5H-dibenz[b,e]azepin-5-yl)carbonyl]phenyl]2,4-dimethylbenzamide], the half-maximal inhibitory concentration (IC50) in test [1] amounted to 340 nM; in test [2] it was 300 nM.
Taken in the same sequence, the figures for `O=C(Nc1ccc(C(=O)N2Cc3ccccc3Cc3ccccc32)cc1)c1ccccc1` [Example 24, N-[4-[(6,11-Dihydro-5H-dibenz[b,e]azepin-5-yl)carbonyl]phenyl]benzamide] were 170 nM and 410 nM.
On to `Cc1ccccc1C(=O)Nc1ccc(C(=O)N2Cc3cc(S(=O)(=O)N(C)C)ccc3Oc3ccccc32)cc1` [Example 23, N-[4-[[2-[(Dimethylamino)sulfonyl]dibenz[b,f][1,4]oxazepin-10(11H)-yl]carbonyl]phenyl]-2-methylbenzamide], for which the inhibition at 50 µM turned out to be 19% in test [1] (setting [4]) and 47% in test [2] (setting [5]).
With `Cc1ccsc1C(=O)Nc1ccc(C(=O)N2Cc3ccccc3Cc3ccccc32)cc1` [Example 18, N-[4-[(6,11-Dihydro-5H-dibenz[b,e]azepin-5-yl)carbonyl]phenyl]-3-methyl-2-thiophenecarboxamide], the IC50 came out at 84 nM in test [1] and 520 nM in test [2].
On the same counts, the results for `O=C(Nc1ccc(C(=O)N2Cc3ccccc3Cc3ccccc32)cc1)c1ccccc1OC(F)(F)F` [Example 25, N-[4-[(6,11-Dihydro-5H-dibenz[b,e]azepin-5-yl)carbonyl]phenyl]-2-(trifluoromethoxy)benzamide] are 52 nM and 560 nM.
As for `O=C(Nc1ccc(C(=O)N2Cc3ccccc3Cc3ccccc32)cc1)c1ccc(C(F)(F)F)cc1` [Example 20, N-[4-[(6,11-Dihydro-5H-dibenz[b,e]azepin-5-yl)carbonyl]phenyl]-4-(trifluoromethyl)benzamide], the inhibition at 10 µM is 17% in test [1] (2 h, 10 μM, rat hepatic, read-out: V1, % at concentration in brackets) and 48% in test [2] (10 μM, rat kidney, read-out: V2, % at concentration in brackets).
Regarding `O=C(Nc1ccc(C(=O)N2Cc3ccccc3Cc3ccccc32)cc1)c1ccc(F)cc1F` [Example 21, N-[4-[(6,11-Dihydro-5H-dibenz[b,e]azepin-5-yl)carbonyl]phenyl]-2,4-difluorobenzamide], the IC50 amounted to 280 nM in test [1] and 440 nM in test [2].

(Values after patent publication US5834461A, “Tricyclic benzazepine vasopressin antagonists” (American Cyanamid Company, priority 1997, dated 1998).)
